Results on 2 compounds are retold here after BindingDB's records for patent US20240034727 (Stingray Therapeutics, 2024).

Some results are limits rather than exact numbers.

The target in this experiment is T1, Ectonucleotide pyrophosphatase/phosphodiesterase family member 1 (Homo sapiens, UniProt P22413).
T1 sequence (P22413 whole entry): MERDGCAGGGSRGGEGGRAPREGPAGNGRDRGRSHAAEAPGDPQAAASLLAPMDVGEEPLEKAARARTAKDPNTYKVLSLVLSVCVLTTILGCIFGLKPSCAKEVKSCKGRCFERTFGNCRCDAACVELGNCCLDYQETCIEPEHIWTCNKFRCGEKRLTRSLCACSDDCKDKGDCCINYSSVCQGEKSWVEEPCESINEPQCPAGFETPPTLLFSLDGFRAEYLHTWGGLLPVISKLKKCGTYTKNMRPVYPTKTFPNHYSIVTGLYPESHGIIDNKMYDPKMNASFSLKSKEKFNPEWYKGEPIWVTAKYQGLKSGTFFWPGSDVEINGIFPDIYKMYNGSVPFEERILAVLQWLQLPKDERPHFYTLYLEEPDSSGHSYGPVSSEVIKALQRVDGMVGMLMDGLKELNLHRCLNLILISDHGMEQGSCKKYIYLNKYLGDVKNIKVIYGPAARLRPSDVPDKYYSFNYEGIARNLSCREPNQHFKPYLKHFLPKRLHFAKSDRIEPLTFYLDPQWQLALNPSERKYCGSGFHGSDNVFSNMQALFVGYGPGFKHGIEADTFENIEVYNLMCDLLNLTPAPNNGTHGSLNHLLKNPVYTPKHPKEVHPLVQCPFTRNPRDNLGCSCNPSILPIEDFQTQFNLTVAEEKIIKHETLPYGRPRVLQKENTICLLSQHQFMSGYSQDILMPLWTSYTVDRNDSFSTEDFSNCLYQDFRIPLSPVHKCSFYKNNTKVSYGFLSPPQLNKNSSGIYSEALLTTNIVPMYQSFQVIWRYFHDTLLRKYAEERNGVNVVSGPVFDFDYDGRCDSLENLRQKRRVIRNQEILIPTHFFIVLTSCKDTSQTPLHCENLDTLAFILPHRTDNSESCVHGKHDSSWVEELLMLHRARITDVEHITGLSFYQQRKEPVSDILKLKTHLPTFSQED
Kind of experiment: ENPP1 Inhibition Assay. As for the experimental part:
Assay Buffer: 1 mM CaCl2), 0.2 mM ZnCl2, 50 mM Tris, pH 9.0. Substrate: 8 mM Thymidine 5′-monophosphate p-nitrophenol ester sodium salt (Sigma Cat #T4510). Enzyme: 5 ng/L Recombinant Human ENPP-1 Protein (R&D Cat #6136-EN-010) in DMSO in 96-well clear assay plates. An eight point serial dilution of drugs was prepared in 10 in assay buffer with the final assay concentrations starting at 10 μM, 3 μM, 1 μM, 0.3 μM and 0 μM. A dilution of DMSO was included as a control. The assay plate was set up as follows with each well in duplicate: 81 μL assay buffer+10 μL ENPP1 inhibitor or DMSO+5 μL Substrate+4 μL Enzyme. Both the enzyme and substrate was added to opposite sides of the well to ensure that there was no interaction until all wells had both components. The plate was then centrifuged gently for 10 seconds, followed by an incubation at 37 C. for 45 minutes. The reaction was quantified by measuring absorbance at 405 nm using the Envision. IC50 values are determined using GraphPad Prism 5 software. The data were entered as an X-Y plot into the software as percent inhibition for each concentration of the drug. The concentration values of the drug were log transformed and the nonlinear regression was carried out using the sigmoidal dose-response (variable slope) option within the GraphPad software to model the data and calculate IC50 values. […]

`O=C(CSc1nc(C(=O)O)c[nH]1)NCc1cccc(Cl)c1` [US20240034727, Compound I-21] came in with a half-inhibitory concentration (IC50) of more than 10 µM.
The same measure for `COc1ccc(NC(=O)CSc2nc(C(=O)O)c[nH]2)cc1Cl` [US20240034727, Compound I-35]: less than 0.2 µM.

Usually IC50 stands for the midpoint of a concentration-inhibition curve. A high value points to lower potency.
